These results are taken from US10821084B2, “Dihydromyricetin compositions” (REMY BIOSCIENCES, INC., priority 2018, dated 2020).

The conditions of data set [1]: patch measuring 20 cm^2, PIB adhesive and 10% CBD; cited from earlier work.
A short description of data set [2]: In vitro transdermal flux of cannabinoids from monolithic patches, Franz Diffusion Cell method. In kind it is in vitro ADME, human. The settings on record: for stimulation of cumulative CBD flux versus no dihydromyricetin: 15% CBD patch. The text has this:
Transdermal flux of cannabinoids can be measured In Vitro through human cadaver epidermis using Franz Diffusion Cell Method. Samples of 300 microliters can be taken of the receiving solution and analyzed by HPLC for amount ofcannabinoid substance that passed through the epidermis.
Flux is preferably measured using human cadaver skin with a Franz Diffusion Cell (see, Kristof (2017) Feasibility of transdermal delivery of Cyclosporine A using plasma discharges. Biointerphases. 12:02B402). Flux can be measured where the temperature of the Franz Diffusion Cell (and solutions inside the Franz Diffusion Cell) are held constant at about 17 degrees C., about 20 degrees C., about 23 degrees C. (“room temperature”), about 26 degrees C., about 30 degrees C., about 33 degrees C., about 37 degrees C. (mammalian body temperature), about 40 degrees C., and so on.
For each figure, the number of hours that flux was allowed to occur was twentyfour hours (24 hours). The data for each figure used a monolithic patch. Composition of the patch: PIB adhesive with 15% of CBD or 8% THC. Patch construction was adhesive layer attached to a backing polyethylene foam film. No additional overlays were used. Experiments were done using Franz Diffusion Cells using human cadaver skin.

Each structure is given as a SMILES string.

For the molecule `C=C(C)[C@@H]1CCC(C)=C[C@H]1c1c(O)cc(CCCCC)cc1O` [CBD, cannabidiol], the “daily systemic dose of CBD deliverable” value in data set [1] is recorded as “about 5 mg”. Moreover, in data set [2] (control monolithic patch without any dihydromyricetin, 15% CBD, over a period of 24 hours), the “control net flux of CBD” value is “about 155 micrograms CBD per square centimeter of skin”. The “cumulative transdermal flux of CBD” value was “about 155 micrograms/cm^2” in data set [2] (monolithic PIB patch, 15% CBD, 0% dihydromyricetin, 24 hours, FIG. 2 first bar); “about 195 micrograms/cm^2” in data set [2] (monolithic PIB patch, 15% CBD, 3% dihydromyricetin, 24 hours, FIG. 2 second bar); “about 230 micrograms/cm^2” in data set [2] (monolithic PIB patch, 15% CBD, 5% dihydromyricetin, 24 hours, FIG. 2 third bar). The “net flux of CBD” value in data set [2] (monolithic PIB patch, 15% CBD, with dihydromyricetin, over a period of 24 hours) is recorded as “at least 195 micrograms CBD per square centimeter of skin”.

For the molecule `CCCCCc1cc(O)c2c(c1)OC(C)(C)[C@@H]1CCC(C)=C[C@@H]21` [THC, tetrahydrocannabinol], the “control net flux of THC” value in data set [2] (control monolithic patch without any dihydromyricetin, 8% THC, over a period of 24 hours) was “about 90 micrograms THC per square centimeter of skin”. Besides, the “cumulative transdermal flux of THC” value in data set [2] (monolithic PIB patch, 8% THC, 0.5% dihydromyricetin, 24 hours, FIG. 1 third bar) is listed as “about 145 micrograms/cm^2”; in data set [2] (monolithic PIB patch, 8% THC, 3% oleic acid, 24 hours, FIG. 1 second bar), “about 110 micrograms/cm^2”; in data set [2] (monolithic PIB patch, 8% THC, no enhancer, 24 hours, FIG. 1 first bar), “about 90 micrograms/cm^2”. Besides, the “net flux of THC” value in data set [2] (monolithic PIB patch, 8% THC, with dihydromyricetin, over a period of 24 hours) was “at least 145 micrograms THC per square centimeter of skin”.

`O=C1c2c(O)cc(O)cc2O[C@H](c2cc(O)c(O)c(O)c2)[C@H]1O` [dihydromyricetin]: in data set [2] (8% THC patch, 5% dihydromyricetin (third histogram bar), 24 hours), the “stimulation of cumulative THC flux versus no dihydromyricetin” value is on record as “about 61%”. The “stimulation of cumulative CBD flux versus no dihydromyricetin” value was “about 25%” in data set [2] (3% dihydromyricetin, 24 hours) and “about 48%” in data set [2] (5% dihydromyricetin, 24 hours). In addition, the “increase of CBD flux through skin (factor)” value in data set [2] (dermal patch formulation that includes CBD, human cadaver skin) is on record as “three-fold”.
